{"source": "patent US20230135127A1", "about": "“COMPOSITIONS AND METHODS FOR DISEASE TREATMENT AND PREVENTION BY PH MODIFIERS AND/OR CELL PROLIFERATION INHIBITORS” (priority 2021, published 2023)", "key": {"[1]": {"system": "C57BL/6 mice immunized with MOG35-55 (EAE)", "settings": "for mice with clinical scores lower than at initiation of treatment: by day 4, 5 HCl mice, 9 HOAc mice; for average EAE clinical score: day 4 after initiation of treatment, saline 3.46; for inflammation in the spinal cords (histology): day 4 post initiation of treatment; for mice that reached clinical score of 4 or above: i.p. 87.5 mM, 4 doses from score 1.5-2.5, saline 10 of the 11", "method": "Induction of experimental autoimmune encephalomyelitis (EAE), the mouse model of multiple sclerosis, was carried out as previously described. (94). (Also see https://hookelabs.com/protocols/eaeAI_C57BL6.html). […] The final antigen emulsion comprised 1.5 mg/ml of MOG35-55, 189 μg/ml of M. tuberculosis H37Ra and 50% (by volume) IFA.\nFemale C57BL/6 mice of 9 weeks old were acclimated at CRDAL for 1 week. On day 0, mice were immunized by s.c. (subcutaneous) injection of the antigen emulsion at 4 evenly distributed sites in the dorsal area (25 μl/site). Two hours later, the mice were i.p. injected with Pertussis Toxin (List Biological laboratories, Campbell, Calif., USA) freshly prepared in ice-cold PBS (200 ng in 100 μl PBS/mouse). On day 1, the mice received a second i.p. injection of Pertussis Toxin at the same dosage. […] Mice with clinical score of 3 or above were provided wet chows and hydrogels.\nIn the EAE model of Example 2, two types of experiments, i.e., therapeutic and preventive experiments, were carried out. For the therapeutic experiments, on the day when the mice first reached the clinical scores of 1.5 to 2.5, the mice received i.p. treatments with saline, or saline plus 87.5 mM HCl or HOAc. The mice received additional 3 i.p. treatments every other day. […] The mice received i.p. treatments every other day for additional 2 doses. Clinical scores of all mice were recorded daily during and after the treatment periods, but experimentation was terminated on mice that reached clinical score of 5. As specified in some experiments, mice were sacrificed, and spinal cords were collected for histology analyses.\nLungs (after BALF collection), spinal cords and intestines were harvested and fixed in 10% neural formalin (Fisher Scientific, Kalamazoo, Mich., USA). […] Periodic acid-Schiff (PAS) staining was also performed with the lung tissue sections to determine mucus secretion in the lungs as a result of the inflammatory infiltration."}, "[2]": {"system": "C57BL/6 mice immunized with MOG35-55 (EAE)"}, "[3]": {"system": "lymphocytes, eosinophils, macrophages in BALF; neutrophils in blood", "method": "(§1) Cells were washed 3 times with PBS then stained with Zombie viability dyes at room temperature for 20 minutes. At the end of incubation, 10% volume of FBS was added to absorb excess Zombie dyes. After washes, the cells were stained with conjugated antibodies against surface antigens on ice. As specified in some experiments, the cells were subsequently stained with fluorochrome-conjugated Avidin. For Annexin V staining, cells were washed twice with plain PBS and once with Annexin V binging buffer (10 mM HEPES, pH7.4, 140 mM NaCl, 2.5 mM CaCl2)) after surface antigen staining, and incubated with fluorochrome-conjugated Annexin V in Annexin V binding buffer for 15 min at room temperature. The cells were washed twice in Annexin V binding buffer and resuspended in Annexin V binding buffer. 7-AAD was added to the cells before analyzed by flow cytometry. For Ki-67 and Foxp3 staining, lymphocytes (after Zombie dye and surface antigen staining) or tumor cells (without surface antigen staining) were fixed and permeabilized using Foxp3 staining buffer kit, then stained with PE-conjugated anti-mouse or human Ki-67 antibodies. (Biolegend, San Diego, Calif., USA). Stained and unstained cells were analyzed on Accuri C6 Flow Cytomer (Accuri Cytometers, Inc., Ann Arbor, Mich.), FACS Canto (BD Bioscience, San Jose, Calif., USA) and Attune™ cytometer (Invitrogen, Carlsbad, Calif.). Data analyses were carried out using FlowJo X."}, "[4]": {"system": "granulocytes and lymphocytes in the blood", "settings": "RBC-depleted blood"}, "[5]": {"system": "lesions of allergic contact dermatitis"}, "[6]": {"system": "white bone marrow (WBM) cells", "method": "For all examples, treatments of the mice were carried out either by i.t. (intra-tracheal) instillation or i.p. injection. For i.t. instillation, 60 μl of treatment solution of saline or saline plus 175 mM HCl or HOAc was instilled into the trachea of a mouse using a pipet tip. For i.p. injection, 200 μl of saline or saline plus 87.5 mM HCl, HOAc or NaOH was injected into the peritoneal cavity of a mouse using a 26 or 27G needle. At the time of the first treatment the body weights of the mice ranged about 19 to 30 g.\nas §1\nTo provide an example of this aspect of the present invention, C57BL/6 mice received i.p. treatments with saline or saline plus NaOH every other day for a total of 3 doses. Bone marrows were extracted from both tibias on day 1 or 3 after the final treatment."}, "[7]": {"settings": "about 5.25M in water, topical 4 times a day, day 1"}}, "note": "Structures can show the parent of a compound that is named as a salt."}
{"smiles": "Cl", "note": "[HCl, hydrochloric acid]", "values": [{"measurement": "mice with clinical scores lower than at initiation of treatment", "setting": "[1]", "result": "all"}, {"measurement": "average EAE clinical score", "setting": "[1]", "result": 0.9}, {"measurement": "inflammation in the spinal cords (histology)", "setting": "[1]", "result": "no obvious inflammation"}, {"measurement": "mice that reached clinical score of 4 or above", "setting": "[1]", "result": "none of the 5"}]}
{"smiles": "CC(=O)O", "note": "[HOAc, acetic acid]", "values": [{"measurement": "rate of disease onset (mice with EAE)", "setting": "[2]; day 2 after initiation of i.p. treatment, saline 50%", "result": 30, "unit": "%"}, {"measurement": "maximum rate of disease onset", "setting": "[2]; reached 5 days after initiation, saline 80% on day 3", "result": 60, "unit": "%"}, {"measurement": "apoptotic (Annexin V+7-AAD+) macrophages in BALF", "setting": "[3]; i.t. after 3rd challenge, saline 0.71%", "result": 56.4, "unit": "%"}, {"measurement": "apoptotic (Annexin V+7-AAD+) eosinophils in BALF", "setting": "[3]; i.t. after 3rd challenge, saline 2.87%", "result": 95.2, "unit": "%"}, {"measurement": "apoptotic (Annexin V+7-AAD+) lymphocytes in BALF", "setting": "[3]; i.t. after 3rd challenge, saline 3.15%", "result": 85.3, "unit": "%"}, {"measurement": "apoptotic neutrophils (Ly6G high) in blood", "setting": "[3]; saline 7.61%", "result": 38.4, "unit": "%"}, {"measurement": "mice with clinical scores lower than at initiation of treatment", "setting": "[1]", "result": 6}, {"measurement": "average EAE clinical score", "setting": "[1]", "result": 1.78}, {"measurement": "inflammation in the spinal cords (histology)", "setting": "[1]", "result": "no obvious inflammation"}, {"measurement": "mice that reached clinical score of 4 or above", "setting": "[1]", "result": "1 of the 9"}, {"measurement": "mice whose clinical score remained the same", "setting": "[1]; mouse, in vivo", "result": 2}, {"measurement": "percentage of lymphocytes in blood", "setting": "[4]; saline 22.9%", "result": 13.6, "unit": "%"}, {"measurement": "percentage of granulocytes in blood", "setting": "[4]; saline 32.6%", "result": 1.1, "unit": "%"}, {"measurement": "rash in lesion 2", "setting": "[5]; [7]", "result": "almost completely disappeared"}, {"measurement": "rashes in lesion 1", "setting": "[5]; [7]", "result": "partially disappeared"}, {"measurement": "rashes in both lesions", "setting": "[5]; by day 2 and day 3, treated day 0 and day 1", "result": "completely disappeared"}]}
{"smiles": "[Na+].[OH-]", "note": "[NaOH, sodium hydroxide]", "values": [{"measurement": "Ki-67hi cells in B lineage cells", "setting": "[6]; day 1, saline 4.85%", "result": 24.8, "unit": "%"}, {"measurement": "Ki-67hi cells in non-B lineage cells", "setting": "[6]; day 1, saline 11.2%", "result": 35.3, "unit": "%"}, {"measurement": "Ki-67lo cells in B lineage cells", "setting": "[6]; day 1, saline 34.7%", "result": 61.6, "unit": "%"}, {"measurement": "Ki-67hi MPP", "setting": "[6]; day 3, saline 0%", "result": 2.54, "unit": "%"}, {"measurement": "percentage of T (CD3+) cells in WBM cells", "setting": "[6]; day 3, saline 0.69%", "result": 0.87, "unit": "%"}, {"measurement": "Sca-1+ c-kit+ stem cells in Lin- WBM cells", "setting": "[6]; day 3, saline 0.81%", "result": 1.74, "unit": "%"}, {"measurement": "Ki-67hi cells in T cells", "setting": "[6]; day 3, saline 2.86%", "result": 11.6, "unit": "%"}, {"measurement": "Ki-67hi HSC", "setting": "[6]; day 3, saline 6.67%", "result": 15.6, "unit": "%"}, {"measurement": "Ki-67neg TER-119+ cells", "setting": "[6]; day 3, saline 7.11%", "result": 6.72, "unit": "%"}, {"measurement": "percentage of TER-119+ cells in lymphoid and myeloid negative WBM cells", "setting": "[6]; day 3, saline 14.6%", "result": 17.5, "unit": "%"}, {"measurement": "percentage of CD11c+ TCR- cells in WBM cells", "setting": "[6]; day 3, saline 18.4%", "result": 64, "unit": "%"}, {"measurement": "Ki-67lo cells in T cells", "setting": "[6]; day 3, saline 20%", "result": 28.7, "unit": "%"}, {"measurement": "Ki-67lo MPP", "setting": "[6]; day 3, saline 21.9%", "result": 30.7, "unit": "%"}, {"measurement": "Ki-67lo TER-119+ cells", "setting": "[6]; day 3, saline 25.3%", "result": 16, "unit": "%"}, {"measurement": "Ki-67+ cells within the Ly6G+ population", "setting": "[6]; day 3, saline 33.7%", "result": 43.6, "unit": "%"}, {"measurement": "Ki-67+ cells in CD11c+ TCR- cells", "setting": "[6]; day 3, saline 39.5%", "result": 70.1, "unit": "%"}, {"measurement": "percentage of Ly6G+ cells in WBM cells", "setting": "[6]; day 3, saline 42.4%", "result": 57.7, "unit": "%"}, {"measurement": "Ki-67hi TER-119+ cells", "setting": "[6]; day 3, saline 67%", "result": 76.2, "unit": "%"}, {"measurement": "increase of average total number of WBM cells vs saline", "setting": "[6]; i.p. x3, both tibias", "result": 88, "unit": "%"}, {"measurement": "percentage of CD19+ B lineage cells in non-granulocyte WBM cells", "setting": "[6]; one day after three i.p. treatments, saline about 11%", "result": 17, "unit": "%"}, {"measurement": "average percentage of WBM cells in total bone marrow cells", "setting": "[6]; saline less than 14%", "result": "over 29%"}, {"measurement": "tolerance of i.t. instillation", "setting": "mice", "result": "poorly tolerant"}]}
